This is an account of results in patent US8809368B2, “Compounds affecting gap junction activity” (Kansas State University Research Foundation, priority 2006, dated 2014).

The test system of one data set is T47D cells. Description: Scrape load/dye transfer (SL/DT) GJIC assay, T47D cells. Format: cell-based, human. The protocol: In the experiments for FIG. 9, T47D cells were dosed with 100, 200 and 400 nM of PQ1 for 40 minutes. Lucifer yellow, a gap junctional permeable dye, was used to measure the GJIC. Rhodamine dextran was used as a control. The dotted line in FIG. 9 indicates the line of cut. This increase could be due to the interaction between the PQ1 and the connexin proteins which leads to the opening of the gap junction channel. PQ1 exerted no effect on the cell morphology of T47D cells (data not shown).
Scrape load dye transfer technique (SL/DT): Lucifer yellow is an intensely fluorescent […] dye having low molecular weight (Mr 457.2) and passes from one cell to another through gap junctions only. Rhodamine dextran is a high molecular weight polymer (Mr 10,000) used as a control as passes only through injured plasma membrane. Cells were grown to 90% confluency on cover slips, dosed with PQ 1 for 40 minutes. The 2.5 μl of 1% (w/v) Lucifer yellow and 0.75% (w/v) of Rhodamine dextran was mixed and added in the center of the coverslip. Two cuts crossing each other in the center of the coverslip were made. After three minutes, cells were washed with PBS and incubated at 37° C. in tissue culture media for 20 minutes. Cells were fixed and mounted on a slide, sealed and visualized under a fluorescence microscope at 10× objective.
Intercellular communication in many organs is maintained via GJIC. Several GJIC enhancers have been reported; however, an effective clinical drug targeting gap junction is not available at this time. The effect of PQ1 on the GJIC activity in T47D breast cancer cells was tested. […] Conversely, PQ1 has no effect on GJIC activity of human primary epithelial cells (MEC, normal cells) compared to its controls (data not shown). The distance of dye transfer from section cut to the farthest cells with dye was measured. […] MECs have uniform uptake of Lucifer yellow. This is due to the existing high level of gap junction activity of these normal cells.
Gap Junction Activity. […] Cells were mounted on a slide, sealed and visualized under a fluorescence microscope at 10× objective.

The next data set has as its system MEC. Briefly: Soft agar colony growth, MEC. Type of data set: cell-based, human. The conditions noted are these: 100 nM. The protocol: Various oncogenes (e.g. ras, raf, neu, src, mos) down-regulate GJIC while several tumor suppressor genes can up-regulate GJIC. […] Cells were grown in soft agar to assess their capacity for anchorage-independent growth, which is a key feature of cell transformation due to the importance of cell-cell and cell-matrix based tumor suppression. MEC and T47D cells were treated with 10, 100, 1000, and 10000 nM PQ1 for 7 days. A graphical presentation of three experiment results is presented in log scale of PQ1 concentration. […] A 100 nM PQ1 inhibits 66% of colony growth compared to controls, without PQ1 treatment or 100 nM succinic acid.
Colony Growth Using Soft Agar. Cells were treated with 0, 10, 100, 200 and 500 nM PQ1 for 7 days. Base agar plates were prepared containing 0.8% agar and 0.4% agar in Ham's F12. Cells (5×10^4 cells/33 mm^2 well) were suspended in 100 μl of Ham's F12 with 0.4% agar and plated. These plates were maintained at 37° C. for 7 days and examined for the presence of colonies. Individual colonies of 50 μm or greater were examined.

For the next data set, the system named is R28 cells. Description: Apoptosis assay, Annexin V-FITC/PI flow cytometry, R28 cells. Format: cell-based, rat. From the text: (A) Representative flow cytometer images of R28 cells with different treatments of PQ1 and/or CoCl2. The y-axis quantifies the number of cells stained with propidium iodine and the x-axis quantifies number of cells stained with Annexin V-FITC. (B,C) Histogram of % apoptotic cells after treatment with CoCl2 and PQ1. The percentage of apoptotic cells represents cells that are Annexin V-FITC positive and both propidium iodide and Annexin V-FITC positive after different time periods.
Apoptosis assay. Approximately 70% confluent R28Cells in 25 cm2 flasks were treated with PQ1 at 10 μM for 40 min followed by treatment with 500 μM CoCl2 for different time periods to induce apoptosis. After this, cells were harvested and stained with Annexin V-FITC and propidium iodide (PI) according to the manufacturer's protocol (BioVision # K101-100). Annexin V-FITC/PI binding was analyzed by flow cytometry using a BD FACSCalibur system and data was analyzed using the CellQuest software.
The later phase of apoptosis is assessed by measuring the DNA labeling with the PI, an indicator of the cell membrane permeabilization.

As to `COc1cc(NCCCN)c2nccc(C)c2c1Oc1cccc(C(F)(F)F)c1.O=C(O)CCC(=O)O` [PQ1, 6-Methoxy-8-[(3-aminopropyl)amino]-4-methyl-5-(3-trifluoromethylphenyloxy) quinoline succinic acid], in the data set with T47D cells (200 nM, compared to control), the “increase in distance of dye transfer” value amounted to 8.5 fold. The “gap junction activity (SL/DT) compared to controls” value in the data set with T47D cells (100, 200 and 500 nM) is listed as “significant increase”. Moreover, the “gap junctional activity (SL/DT)” value in the data set with T47D cells (200 and 500 nM for 40 minutes) is recorded as “significant increase”. Moreover, in the data set with MEC, the colony growth result is “no effect”. For the same compound, the “protection from CoCl2-induced apoptosis” value in the data set on R28 cells (10 μM PQ1 40 min pre-treatment, then CoCl2 500 μM) is “protected the cells significantly”. In addition, the “damage to the cells” value in the data set on R28 cells (10 μM PQ1 only, 36 h) is listed as “did not cause any damage”.
